{
  "source": "patent US20140330152A1",
  "about": "“PROVIDING EVIDENCE WHETHER AN INT[…] IS CORRECTLY POSITIONED” (priority 2011, published 2014)",
  "data": [
    {"smiles": "O=C([O-])O.[Na+]", "note": "[bicarbonate (as NaHCO3), sodium bicarbonate]", "values": [
      {"measurement": "amount of exhaled carbon dioxide on extravascular administration", "setting": "administered extravascularly", "value": "does not substantially increase"},
      {"measurement": "clearance: amount of exhaled carbon dioxide returns to normal after administration is stopped", "setting": "after intravenous administration is stopped", "value": "within the third exhalation"}
    ]}
  ]
}
